Laboratory results published in the supplement of paper PMC11781733.
Counter-ions that a name gives are not always drawn.

Legend:
Conditions in all cases: exposure time: 15 min to 3 h acute
Dugesia japonica [1] = assay: total locomotor bursts minus vehicle (bursts difference vs vehicle); higher = higher incidence or increase relative to vehicle control
How it was run: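 Planarians of the species Dugesia japonica, fasted beforehand, received half- or quarter-log concentration series in 0.5% DMSO or water, one animal per well of a sealed 48-well plate holding 200 μL solution. They were tested 15 min–3 h after exposure in technical triplicates totalling n = 24. Each animal's count of total locomotor bursts, an unstimulated behaviour obtained by image-based object tracking, had the plate vehicle-control median subtracted without ×100 scaling. The figure given is the median normalised response, with crawled-out worms excluded.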

Dugesia japonica [2] = assay: speed first 30 s blue light vs vehicle (% change vs vehicle); higher = higher incidence or increase relative to vehicle control
How it was run: (§1)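 Crawling speed is given as the median percent change after each worm was normalised to its plate's vehicle median, leaving out worms that crawled out. Fasted, intact Dugesia japonica were placed one per well in 200 μL in 48-well plates and tracked automatically in darkness or during blue-light periods, 15 min to 3 h after exposure in 0.5% DMSO or water vehicle. Runs used eight worms per concentration per plate in technical triplicate (n = 24).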

Dugesia japonica [3] = assay: loss of phototaxis incidence (% planarians (vehicle-normalised)); higher = higher incidence or increase relative to vehicle control
How it was run: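 Intact, fasted Dugesia japonica were tested 15 min to 3 h after exposure in 0.5% DMSO or water vehicle, one per well of a 48-well plate in 200 μL. Automated object tracking was used to score each worm for loss of phototaxis as a yes/no result. With eight worms per concentration per plate in technical triplicate (n = 24), worms that crawled out were excluded. The incidence rate ×100 was normalised to in-plate vehicle controls and negatives were set to 0.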

Dugesia japonica [4] = assay: crawl-out incidence (% planarians); higher = higher incidence or increase relative to vehicle control
Method: (§2)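 Adult asexual Dugesia japonica planarians (1 per well, 48-well plate, n=24 over technical triplicates) were exposed acutely (15 min to 3 h) to each compound (0.5% DMSO or water vehicle) and screened on a robotic platform for crawl-out, stickiness, body shape, phototaxis, noxious-heat scrunching and locomotion endpoints. Binary endpoints are incidence rate x100. Continuous endpoints are the median response normalised to the plate vehicle median, as % change or difference. Negative incidences after vehicle subtraction were set to 0.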

Dugesia japonica [5] = assay: speed in dark vs vehicle (% change vs vehicle); higher = higher incidence or increase relative to vehicle control
Method: as §2, with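 “x100 normalised to in-plate vehicle controls.” for “x100.”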

Dugesia japonica [6] = assay: C-shape incidence (% planarians (vehicle-normalised)); higher = higher incidence or increase relative to vehicle control
How it was run: (§3)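 D. japonica planarians (fasted 5–7 days), one per well in 200 μL in sealed 48-well plates, were screened within 15 minutes–3 hours of exposure to at least 5 concentrations. Body shapes (contraction, C-shape, corkscrew, hyperkinesis) were scored manually and blind by a researcher; worms that crawled out were excluded. The value is the incidence of the given shape, or of any abnormal shape, ×100, normalised to in-plate vehicle controls, with negatives set to 0.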

Dugesia japonica [7] = assay: speed second 30 s blue light vs vehicle (% change vs vehicle); higher = higher incidence or increase relative to vehicle control
How it was run: as §1

Dugesia japonica [8] = assay: contracted body shape incidence (% planarians (vehicle-normalised)); higher = higher incidence or increase relative to vehicle control
How it was run: as §3

Dugesia japonica [9] = assay: corkscrew incidence (% planarians (vehicle-normalised)); higher = higher incidence or increase relative to vehicle control
How it was run: as §3

Dugesia japonica [10] = assay: anxiety (time in outer well region) vs vehicle (% change vs vehicle); higher = higher incidence or increase relative to vehicle control
How it was run: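 Each planarian's time in the outer portion of its well was scored, worms that crawled out were dropped, and the median normalized response is reported. Fasted 5–7 days, D. japonica worms were tested singly in 200 μL in sealed 48-well plates at at least 5 concentrations, n = 24 per concentration, within 15 minutes–3 hours. Each response was normalized by dividing by, or subtracting, the plate vehicle median and multiplying by 100.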

Dugesia japonica [11] = assay: resting fraction in blue light vs vehicle (difference in fraction x100 vs vehicle); higher = higher incidence or increase relative to vehicle control
How it was run: (§4)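 Resting fraction in the dark or under blue light is reported as a median from automated tracking of intact, fasted Dugesia japonica. Worms were held one per well of a 48-well plate in 200 μL and tested 15 min to 3 h after exposure in 0.5% DMSO or water vehicle. Each worm's value was its difference from the plate's vehicle median multiplied by 100, and worms that crawled out were excluded.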

Dugesia japonica [12] = assay: loss of heat-induced scrunching incidence (% planarians (vehicle-normalised)); higher = higher incidence or increase relative to vehicle control
How it was run: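 The incidence of worms lacking a scrunching response to a noxious heat stimulus, normalised to vehicle controls within each plate, is the value listed. It appears ×100 with negatives set to 0. Single D. japonica planarians in 200 μL per well of 48-well plates were exposed to at least 5 concentrations (n = 24 per concentration) and tested within 15 minutes–3 hours, excluding worms that crawled out.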

Dugesia japonica [13] = assay: stickiness incidence (% planarians (vehicle-normalised)); higher = higher incidence or increase relative to vehicle control
How it was run: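 Stickiness was scored as a yes-or-no outcome in fasted Dugesia japonica planarians, and incidence was normalised to the vehicle incidence on the same plate. Each worm sat alone in a well of a sealed 48-well plate holding 200 μL of solution and was tested 15 min–3 h after exposure to half- or quarter-log concentration series, with 0.5% DMSO or water as vehicle. Technical triplicates were pooled (n = 24), negative values were set to 0, values were multiplied by 100, and worms that crawled out were excluded.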

Dugesia japonica [14] = assay: resting fraction in dark vs vehicle (difference in fraction x100 vs vehicle); higher = higher incidence or increase relative to vehicle control
How it was run: as §4

Dugesia japonica [15] = assay: any abnormal body shape incidence (% planarians (vehicle-normalised)); higher = higher incidence or increase relative to vehicle control
How it was run: as §3

Dugesia japonica [16] = assay: hyperkinesis incidence (% planarians (vehicle-normalised)); higher = higher incidence or increase relative to vehicle control
How it was run: as §3

Dugesia japonica [17] = assay: pharynx extrusion incidence (% planarians (vehicle-normalised)); higher = higher incidence or increase relative to vehicle control
How it was run: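 Intact, fasted Dugesia japonica were placed one per well in 48-well plates with 200 μL each and scored 15 min to 3 h after exposure in either water or 0.5% DMSO vehicle. Pharynx extrusion was judged manually and blind as a body-shape category. Each concentration used eight worms per plate in technical triplicate (n = 24). Incidence was normalised to vehicle controls on the same plate, negative values were set to 0, and worms that crawled out were excluded.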

Dugesia japonica [18] = assay: noxious heat displacement strength vs vehicle (% change vs vehicle); higher = higher incidence or increase relative to vehicle control
How it was run: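 In the scrunching assay, displacement strength under noxious heat was tracked automatically in intact, fasted Dugesia japonica and expressed as the median percent change from the plate's vehicle median. Testing took place 15 min to 3 h after exposure in 0.5% DMSO or water vehicle, with one worm per well of a 48-well plate in 200 μL. Eight worms per concentration per plate were tested in technical triplicate (n = 24), and any that crawled out were left out.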

Row | Structure (SMILES) | total locomotor bursts minus vehicle (Dugesia japonica [1]) | speed first 30 s blue light (Dugesia japonica [2]) | loss of phototaxis incidence (Dugesia japonica [3]) | crawl-out incidence (Dugesia japonica [4]) | speed in dark (Dugesia japonica [5]) | C-shape incidence (Dugesia japonica [6]) | speed second 30 s blue light (Dugesia japonica [7]) | contracted body shape incidence (Dugesia japonica [8]) | corkscrew incidence (Dugesia japonica [9]) | anxiety (Dugesia japonica [10]) | resting fraction in blue light (Dugesia japonica [11]) | loss of heat-induced scrunching incidence (Dugesia japonica [12]) | stickiness incidence (Dugesia japonica [13]) | resting fraction in dark (Dugesia japonica [14]) | any abnormal body shape incidence (Dugesia japonica [15]) | hyperkinesis incidence (Dugesia japonica [16]) | pharynx extrusion incidence (Dugesia japonica [17]) | noxious heat displacement strength (Dugesia japonica [18])
1 | CN1CC(=O)N=C1NC(=O)Nc1cccc(Cl)c1 [fenobam] (56.2 µM) | -0.5 | -6.17 | 12.5 | 0 | -1.71 | 0 | -8.21 | 0 | 0 | 9.05 | 0 | ≤ 0 | ≤ 0 | -0.17 | 0 | 0 | 0 | -21.7
2 | CNCCC(Oc1ccc(C(F)(F)F)cc1)c1ccccc1 (stereo not given) [fluoxetine hydrochloride] (1 µM) | -7 | 33.5 | ≤ 0 | 0 | 33.6 | 0 | 14.9 | 0 | 0 | 6.17 | -1.64 | 8.33 | 4.17 | -9.67 | 0 | 0 | 0 | 12
3 | O=C(CCCN1CCC(O)(c2ccc(Cl)cc2)CC1)c1ccc(F)cc1 [haloperidol] (1 µM) | 0 | -26.1 | 21.7 | 4.17 | -17.7 | 0 | -36.1 | 4.35 | 0 | 1.11 | 10.1 | ≤ 0 | ≤ 0 | 32.1 | 4.35 | 0 | 0 | -20.5
4 | CN(C)CCCN1c2ccccc2CCc2ccccc21 [imipramine] (0.316 µM) | 5.25 | -17.6 | 4.17 | 0 | -16.2 | 0 | -12.2 | 4.17 | 0 | -0.7 | 1.3 | ≤ 0 | ≤ 0 | 5.24 | 8.33 | 0 | 0 | 23.7
5 | Cc1ncc2n1-c1ccc(Cl)cc1C(c1ccccc1F)=NC2 [midazolam] (10 µM) | -1.5 | 12.7 | ≤ 0 | 0 | -4.66 | 0 | 6.88 | 0 | 0 | -4.77 | -0.5 | ≤ 0 | ≤ 0 | 0.667 | 8.33 | 8.33 | 0 | -18.8
6 | Cc1cc2c(s1)Nc1ccccc1N=C2N1CCN(C)CC1 [olanzapine] (3.16 µM) | 41.2 | -79.2 | ≤ 0 | 4.17 | -69 | 8.33 | -75.2 | 0 | 0 | -4.66 | 34 | 45.8 | ≤ 0 | 51.2 | 58.3 | 54.2 | 0 | -37.1
7 | CN1CCN(CCCN2c3ccccc3Sc3ccc(Cl)cc32)CC1 [prochloroperazine] (1 µM) | 10.5 | -22.6 | 4.35 | 4.17 | -31 | 0 | -13.4 | 0 | 0 | 9.41 | 5.37 | 26.1 | ≤ 0 | 7.43 | 4.35 | 4.35 | 0 | -10.7
8 | CNCC[C@H](Oc1cccc2ccccc12)c1cccs1 [s-duloxetine] (1 µM) | 7 | 34.6 | 17.4 | 4.17 | 13.6 | 0 | -13.5 | 0 | 0 | 12.8 | 9.83 | 13 | 13 | -7.56 | 0 | 0 | 0 | -35.3
9 | CN[C@H]1CC[C@@H](c2ccc(Cl)c(Cl)c2)c2ccccc21 [sertraline hydrochloride] (1 µM) | -2.5 | -11.7 | ≤ 0 | 0 | 0.19 | 0 | -15.7 | 0 | 0 | 5.35 | 0 | 4.17 | 8.33 | 5.44 | 12.5 | 12.5 | 0 | -12.6
10 | CCCCNc1c(C(=O)OCC)c(C)nc2c1cnn2CC [tracazolate hydrochloride] (1 µM) | 3.25 | -20 | ≤ 0 | 0 | -16.4 | 0 | -8.21 | 0 | 0 | -16.4 | 0.18 | ≤ 0 | 8.33 | 1.34 | 0 | 0 | 0 | -26.2
